Residue numbers refer to the chain shown, from its start. Values joined by “and” are separate entries in the source; they are usually repeats but may differ in a detail not shown here. Identical values can stand only once.
Assays:
[1] = system: C. elegans N2 Bristol strain; experiment: Egg-laying assay; assay type: in vivo, Caenorhabditis elegans; conditions: wild-type nematodes, high concentrations
[2] = target: T1, recombinant Drosophila Naam (Drosophila melanogaster, UniProt Q9VDU7); experiment: Naam enzyme activity and inhibition assay; assay type: biochemical
T1 sequence (Q9VDU7 1-357): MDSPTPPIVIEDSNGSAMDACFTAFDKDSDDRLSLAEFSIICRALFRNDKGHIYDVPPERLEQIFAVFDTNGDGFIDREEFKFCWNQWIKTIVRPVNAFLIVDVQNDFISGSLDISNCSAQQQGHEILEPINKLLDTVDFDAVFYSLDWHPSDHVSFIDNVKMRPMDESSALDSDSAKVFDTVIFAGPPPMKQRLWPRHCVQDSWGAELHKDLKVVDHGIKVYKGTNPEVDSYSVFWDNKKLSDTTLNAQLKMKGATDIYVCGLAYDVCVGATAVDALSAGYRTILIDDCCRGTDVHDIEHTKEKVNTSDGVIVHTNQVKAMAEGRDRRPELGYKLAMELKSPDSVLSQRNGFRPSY

[3] = system: Drosophila flies; experiment: Climbing assay; assay type: in vivo, Drosophila melanogaster
[4] = target: T2, recombinant Naam A265E mutant (Drosophila melanogaster, UniProt Q9VDU7, A265E)
T2 sequence (Q9VDU7 1-357 A265E): T1 sequence (Q9VDU7 1-357) with A265E

[5] = target: T3, recombinant Naam T294E mutant (Drosophila melanogaster, UniProt Q9VDU7, T294E); assay type: biochemical
T3 sequence (Q9VDU7 1-357 T294E): T1 sequence (Q9VDU7 1-357) with T294E

[6] = system: Nan-Iav TRPV channels; conditions: cited from earlier work
[7] = target: Nilaparvata lugens (planthopper) Naam; experiment: Naam inhibition assay, planthopper Naam; assay type: biochemical
[8] = target: Myzus persicae (aphid) Naam; experiment: Naam inhibition assay, aphid Naam; assay type: biochemical
[9] = target: T4, C. elegans PNC-2 (Caenorhabditis elegans, UniProt Q7YTI0); experiment: Naam inhibition assay, C. elegans PNC-2; assay type: biochemical
T4 sequence (Q7YTI0 1-316): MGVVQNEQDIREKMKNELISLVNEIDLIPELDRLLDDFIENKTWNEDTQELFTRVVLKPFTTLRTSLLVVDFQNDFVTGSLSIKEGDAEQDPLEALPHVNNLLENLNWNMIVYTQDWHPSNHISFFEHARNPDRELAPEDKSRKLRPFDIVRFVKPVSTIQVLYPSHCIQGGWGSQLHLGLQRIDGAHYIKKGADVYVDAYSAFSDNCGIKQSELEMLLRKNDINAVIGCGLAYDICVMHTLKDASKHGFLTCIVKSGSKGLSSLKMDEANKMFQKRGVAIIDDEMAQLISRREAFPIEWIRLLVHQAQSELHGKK

[10] = target: T5, Apis mellifera (honey bee) Naam2 (Apis mellifera, UniProt A0A7M7MP11); experiment: Naam enzyme activity and inhibition assay, honey bee Naam2; assay type: biochemical
T5 sequence (A0A7M7MP11 1-346): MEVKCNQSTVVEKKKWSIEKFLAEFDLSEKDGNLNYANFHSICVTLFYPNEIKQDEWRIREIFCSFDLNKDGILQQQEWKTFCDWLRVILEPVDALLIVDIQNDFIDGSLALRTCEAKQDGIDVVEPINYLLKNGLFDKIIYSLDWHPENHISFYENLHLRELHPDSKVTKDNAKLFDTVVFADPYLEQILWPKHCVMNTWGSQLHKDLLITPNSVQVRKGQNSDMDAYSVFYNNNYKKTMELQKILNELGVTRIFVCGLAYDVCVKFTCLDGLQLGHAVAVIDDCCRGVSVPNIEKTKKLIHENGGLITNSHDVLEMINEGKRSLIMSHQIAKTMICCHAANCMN

[11] = target: B. burgdorferi PncA (Borreliella burgdorferi, UniProt G1FKW2); experiment: Naam inhibition assay, B. burgdorferi PncA; assay type: biochemical, Borrelia burgdorferi
[12] = target: T6, Aedes albopictus (mosquito) Naam (Aedes albopictus, UniProt A0ABM2A4C4); experiment: Naam inhibition assay, mosquito Naam; assay type: biochemical
T6 sequence (A0ABM2A4C4 1-377): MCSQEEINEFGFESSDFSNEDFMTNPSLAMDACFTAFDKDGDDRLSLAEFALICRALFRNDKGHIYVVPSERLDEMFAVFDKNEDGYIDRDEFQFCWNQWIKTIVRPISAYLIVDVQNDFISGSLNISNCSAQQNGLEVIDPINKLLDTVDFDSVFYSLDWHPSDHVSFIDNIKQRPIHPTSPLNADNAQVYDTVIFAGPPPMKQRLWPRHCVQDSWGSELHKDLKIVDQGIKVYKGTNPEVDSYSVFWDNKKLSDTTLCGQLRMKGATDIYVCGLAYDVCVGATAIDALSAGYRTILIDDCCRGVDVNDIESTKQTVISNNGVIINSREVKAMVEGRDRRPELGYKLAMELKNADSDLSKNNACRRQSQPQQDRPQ

[13] = target: T7, C. elegans PNC-1 (Caenorhabditis elegans, UniProt Q9N426); experiment: Naam inhibition assay, C. elegans PNC-1; assay type: biochemical
T7 sequence (Q9N426 25-335): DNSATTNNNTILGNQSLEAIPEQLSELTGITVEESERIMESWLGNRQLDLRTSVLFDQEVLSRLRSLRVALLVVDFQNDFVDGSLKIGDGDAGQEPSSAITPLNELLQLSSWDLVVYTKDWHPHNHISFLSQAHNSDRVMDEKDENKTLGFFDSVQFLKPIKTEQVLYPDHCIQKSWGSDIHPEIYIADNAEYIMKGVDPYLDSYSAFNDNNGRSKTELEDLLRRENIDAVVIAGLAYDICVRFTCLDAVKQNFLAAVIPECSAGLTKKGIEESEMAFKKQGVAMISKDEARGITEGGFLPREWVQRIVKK

[14] = system: mice; conditions: cited from earlier work

Structure (SMILES): O=Cc1cccnc1 [NAH, Nicotinaldehyde]
- number of eggs laid [1]: significantly reduced the number of eggs laid
- Ki [2]: 330 nM
- effect on flies in climbing assays ([3]; even at 5 mM): no significant effect

Structure (SMILES): NC(=O)c1cccnc1 [NAM, nicotinamide]
- turnover number relative to wild-type Naam ([4]; A265E substitution): ~ 22%
- effect on climbing scores ([3]; 2 or 5 mM): no significant effect
- effect on climbing scores ([3]; feeding high concentrations (> 10 mM)): reduced the climbing scores

Structure (SMILES): NC(=O)c1cnccc1C(F)(F)F [TFNA-AM, 4-trifluoromethylnicotinamide]
- resistance based on increase in Ki vs wild-type Naam [5]: 7.5 fold
- activation of heterologously expressed Nan-Iav TRPV channels [6]: neither FL nor its metabolite TFNA-AM activates
- Ki [7]: 600 nM
- Ki [8]: 80 nM
- sensitivity of PNC-2 [9]: neither PNC-1 nor PNC-2 was sensitive
- Ki [10]: 16700 nM
- fold less sensitive than the honey bee Naam1 ([10]; Ki Naam2 vs Naam1): 21 fold
- fold less sensitive than the aphid Naam ([10]; Ki Naam2 vs aphid Naam): 209 fold
- Ki [2]: 720 nM
- enzymatic activity of Naam in the presence of compound ([2]; 100 μM): markedly reduced the enzyme activity
- resistance based on increase in Ki vs wild-type Naam [4]: 415.7 fold
- Ki [11]: 2370 nM
- Ki [12]: 1090 nM
- sensitivity of PNC-1 [13]: neither PNC-1 nor PNC-2 was sensitive
- LD50 (median lethal dose) [14]: > 2000 mg/kg
- reduction of climbing ability compared with FL ([3]; 2 mM, after 1 hour of feeding, score at 30 s): more effective than FL
- difference to FL in reduction of climbing ability ([3]; 2 mM, after 3 hours of feeding, score at 30 s): not significant
- effect on climbing scores in combination with NAM ([3]; 10 or 20 μM combined with NAM): significantly synergized the toxicity of NAM
- negative geotaxis (climbing index at 30 s) ([3]; control flies, 2 mM for 3 hours): < 15%
- climbing index (at 30 s) ([3]; in vivo): 68% and 52%
- concentration that suppressed negative geotaxis ([3]; in vivo): ≥ 20 µM
- effect of Naam knockdown on climbing index ([3]; in vivo): had no effect
- effect on negative geotaxis ([3]; in vivo): virtually abolished
- effect on negative geotaxis of Naam^A265E flies ([3]; in vivo): did not impair negative geotaxis
- sensitivity of heterozygous control flies in climbing assays ([3]; in vivo): as sensitive as wild-type flies
- effect on climbing scores, alone ([3]; low doses (10 or 20 μM) alone): negligible effects

Structure (SMILES): O=Cc1cnccc1C(F)(F)F [TNAH, 4-(trifluoromethyl)nicotinaldehyde]
- number of eggs laid [1]: significantly reduced the number of eggs laid

Structure (SMILES): CC1=NNC(=O)N(/N=C/c2cccnc2)C1 [pymetrozine]
- sensitivity of Naam knockdown flies ([3]; in vivo): still sensitive

Structure (SMILES): CC(=O)N1C(=O)N(NCc2cccnc2)Cc2cc(C(F)(C(F)(F)F)C(F)(F)F)ccc21 [pyrifluquinazon]
- sensitivity of Naam knockdown flies ([3]; in vivo): still sensitive

Source: paper PMC9683716 (Science Advances, 2022)
